{"source": "patent US8106019B2", "about": "“CHEC-7 a novel sPLA2 inhibitor” (Philadelphia Health & Education Corporation, priority 2002, dated 2012)", "key": {"human plasma PLA2": {"tested_on": "human plasma PLA2", "conditions": "25 nM peptide"}, "plasma sPLA2": {"tested_on": "plasma sPLA2", "conditions": "LPS 4 mg/kg s.c.; peptide 0.4 mg/kg s.c. 60 min later"}, "PLA2": {"tested_on": "PLA2", "conditions": "cited from earlier work"}}, "data": [{"substance": "CAHAQAESC", "values": [{"measurement": "survival of neural cells", "setting": "neural cells", "value": "promotes survival of neural cells"}]}, {"substance": "CHEASQC [CHEC-7]", "values": [{"measurement": "dependence of inhibition on substrate concentration", "setting": "human plasma PLA2", "value": "less effective at the lowest substrate concentrations"}, {"measurement": "ex vivo inhibition of human plasma PLA2", "setting": "human plasma PLA2; 25% pooled ALS plasma, PED6 substrate", "value": "inhibition"}, {"measurement": "LPS-induced increases in sPLA2 activity in plasma", "setting": "plasma sPLA2", "value": "effective in attenuating"}, {"measurement": "effect on LPS-induced plasma sPLA2 compared with CHEC-9", "setting": "plasma sPLA2", "value": "greater and more sustained effect"}]}, {"substance": "PMSF", "values": [{"measurement": "PLA2 activity", "setting": "PLA2", "value": "inhibits PLA2 activity"}]}]}
